Here are results for 17 molecules from paper PMC9525908, “α-Crystallin chaperone mimetic drugs inhibit lens γ-crystallin aggregation: Potential role for cataract prevention” (The Journal of Biological Chemistry, 2022).

Residue numbers refer to the chain shown, from its start. Entries after “also recorded” stand apart in the source; their conditions may differ.

Holding throughout (assay type): biochemical
In one assay the test system is bovine gamma crystallins. The experiment in a line: Screen: H2O2 and heat mediated aggregation of bovine gamma crystallins, turbidimetry at 600 nm. To be noted: 500 μM compound, H2O2 with or without added thermal stress. Here is the method:
For the initial screen, a microtiter plate assay was developed in which bovine crystallins (2 mg/ml of 50 mM K3PO4 buffer, pH 7.2 [buffer A]) were exposed to H2O2 at varying concentrations (1–50 mM) for 12 to 36 h, upon which turbidity developed (at 50 mM H2O2 concentration) in both β- and γ-crystallins (Fig. 1, A and B). […] This was determined by turbidimetry at 600 nm (Fig. 1C) and confirmed using visual assessment of solution transparency over a fine text as well as the presence of cloudy aggregates visible by dark field microscopy (Fig. 1D). The drug:protein stoichiometric ratio was about 5:1. The wavelength of 600 nm was chosen to minimize interference by colored compounds, many of which absorb below 500 nm (Fig. 1E).
Wells were filled with 90 μl calf γ-crystallin-rich protein solution (pool 4 at 2 mg/ml) followed by 0.5 to 5.0 μl of drug (all 10 mM stock solution in DMSO) as supplied by the manufacturer and 10 μl H2O2 (450 mM stock solution in water) and sealed with sticky Applied Biosystems MicroAmp Clear Adhesive films (Life Technologies). Control wells received DMSO only. […] In order to quantitate the impact of the drugs on aggregation, a fitness plot was created (Fig. 1 C) that allowed us to identify wells with enhanced/worsening versus suppressed crystallin aggregation. In addition, aggregation in each well was also visually assessed by two independent “blinded” readers for the ability to read fine print through each well by placing the plates over small font text (Fig. 1D). Both machine and visual readouts were reconciled in order to increase robustness.

Another assay concerns Bovine γ-crystallins. The experiment in a line: Thermal aggregation (72 °C) turbidity assay, bovine γ-crystallins (pool 4). Conditions: for Thermal denaturation inhibitory activity in subscreen: 150 μM; for Thermal denaturation inhibitory activity in subscreen / % Suppression: 72 °C 20 min; for % Suppression: 75 μM protein, 125 μM or less inhibitor (1.7:1). How it is done:
Candidate compounds were rescreened using thermal denaturation upon heating at 72 °C for 20 min according to Chen et al. ([36]) in order to select for compounds with chaperone rather than antioxidant activity since a large number of the latter already exist in the cataract field ([37]).
(§1) For a review, see the study by Roskamp et al. ([38]). […] For the mechanistic studies below these two compounds together with either drug M, chosen mostly as negative control, or the entire set of six compounds were used for comparison purpose, whereby the words “drug” or “compound” are used interchangeably in the studies later.
All assays were carried out manually in CORNING #9017 Costar Assay 96-well plates. Wells were filled with 90 μl calf γ-crystallin-rich protein solution (pool 4 at 2 mg/ml) followed by 0.5 to 5.0 μl of drug (all 10 mM stock solution in DMSO) as supplied by the manufacturer and 10 μl H2O2 (450 mM stock solution in water) and sealed with sticky Applied Biosystems MicroAmp Clear Adhesive films (Life Technologies). Control wells received DMSO only. Plates were shaken for 2 min and incubated from 24 to 72 h in a culture room at 37 °C. […] A second reading was performed following a heat shock of 20 min at 72 °C as described by Chen et al. ([36]) in order to capture drugs with heat-resistant chaperone activity. In order to quantitate the impact of the drugs on aggregation, a fitness plot was created (Fig. 1 C) that allowed us to identify wells with enhanced/worsening versus suppressed crystallin aggregation. In addition, aggregation in each well was also visually assessed by two independent “blinded” readers for the ability to read fine print through each well by placing the plates over small font text (Fig. 1D). Both machine and visual readouts were reconciled in order to increase robustness.
(§2) Final DMSO concentration was 5% including in control samples. Microtiter plates were first incubated for 10 min at 72 °C and reincubated for 10 more min. Absorbance was measured at both 10 and 20 min total incubation time.

The next assay concerns the target T1, HγD (Homo sapiens, UniProt P07320).
T1 construct: made in house; host or cells: E. coli BL21(DE3) pLysS, pET3d vector
T1 sequence (P07320 1-174): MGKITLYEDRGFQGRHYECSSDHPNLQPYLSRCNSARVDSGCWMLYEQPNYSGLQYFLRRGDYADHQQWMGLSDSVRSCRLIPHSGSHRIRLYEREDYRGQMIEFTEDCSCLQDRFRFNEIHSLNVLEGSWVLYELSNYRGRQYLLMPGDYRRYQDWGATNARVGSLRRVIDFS
Briefly: Thermal aggregation (72 °C) turbidity assay, recombinant HγD. How it is done: For refinement of the aforementioned screen, these compounds were tested at concentrations varying from 50 to 500 μM and 1.5 mg/ml concentration of recombinant HγD, human gamma S (HγS), its deamidation mutants γS_N14, γS_N76, γS_N143 and its triple mutant γSTM (Fig. 1F). In addition, other drugs and compounds that tested positive in the initial screen were also included, such as escin (E), hematein (I), citric acid (CA), docusate sodium (DS), and sennoside A (S) (Fig. S1B). […] For a review, see the study by Roskamp et al. ([38]). […] Thus, drug C and drug G emerged as the strongest antidenaturation/aggregation and potential anticataract drugs. For the mechanistic studies below these two compounds together with either drug M, chosen mostly as negative control, or the entire set of six compounds were used for comparison purpose, whereby the words “drug” or “compound” are used interchangeably in the studies later.
For end-point assays, HγD and MγS (1 mg/ml, 100 μl) in 50 mM K3PO4 buffer (pH 7.2) in set of triplicates in transparent flat bottom 96-well plates were heated at 72 °C for 20 min in the presence and absence of selected drugs at varying concentrations. Absorbance was measured at 600 nm with a SpectraMax iD5 (Molecular Devices).
HγD protein (2.5 mg/ml buffer A) was incubated at 72 °C for 20 min without or with 100 or 400 μM drug G or C in buffer A. Final DMSO concentration was 5% in all samples. […] Therefore, samples with and without 400 μM drug G were chosen for identification of drug G-induced miscleavage sites upon digestion with 25:1 protein:trypsin ratio (sequencing grade modified trypsin; Promega) in buffer A. After 4 h, samples were frozen at −80 °C until processed for determination of miscleavage sites using proteomics analysis. LC–MS/MS analysis was performed on an Orbitrap Eclipse mass spectrometer (Thermo Fisher Scientific) coupled with a Waters nanoAcquity UPLC system (Waters) in total 90 min run using a linear gradient range from 0 to 42% solvent B (0.1% formic acid in acetonitrile) versus solvent A (0.1% formic acid in water) at a flow rate of 300 nl/min. MS1 full mass spectra were acquired in the Orbitrap mass analyzer at the resolution of 120 K. MS/MS tandem mass spectra were generated in the ion trap mass analyzer by collision-induced dissociation of peptide ions at a normalized collision energy of 35%. The resulting MS/MS spectra were searched against human gamma D protein database using Mass Matrix software (MassMatrix, Inc) with the mass errors of 10 ppm and 0.8 Da for MS1 and MS/MS scans, respectively. The oxidation of methionine was set for variable modifications, and three miscleavages were allowed for the search.
as §2

Another assay has as its target T2, WT-MγS (Mus musculus, UniProt O35486).
T2 construct: made in house; host or cells: E. coli BL21(DE3) pLysS, pET17b vector
T2 sequence (O35486 1-178): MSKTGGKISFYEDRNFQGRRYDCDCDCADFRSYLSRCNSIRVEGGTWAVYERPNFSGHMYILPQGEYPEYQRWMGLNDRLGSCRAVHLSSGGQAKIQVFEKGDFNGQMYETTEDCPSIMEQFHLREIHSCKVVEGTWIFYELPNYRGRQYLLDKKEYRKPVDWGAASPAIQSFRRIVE
Briefly: End-point heat-mediated turbidity assay, WT-MγS. To be noted: 400 μM drug, 72 °C, protein above 0.5 mg/ml. How it is done:
For end-point assays, HγD and MγS (1 mg/ml, 100 μl) in 50 mM K3PO4 buffer (pH 7.2) in set of triplicates in transparent flat bottom 96-well plates were heated at 72 °C for 20 min in the presence and absence of selected drugs at varying concentrations. Absorbance was measured at 600 nm with a SpectraMax iD5 (Molecular Devices). […]
as §2

The target in a further assay is T3, HγS_N143D (Homo sapiens, UniProt P22914, N144D).
T3 sequence (P22914 1-178 N144D): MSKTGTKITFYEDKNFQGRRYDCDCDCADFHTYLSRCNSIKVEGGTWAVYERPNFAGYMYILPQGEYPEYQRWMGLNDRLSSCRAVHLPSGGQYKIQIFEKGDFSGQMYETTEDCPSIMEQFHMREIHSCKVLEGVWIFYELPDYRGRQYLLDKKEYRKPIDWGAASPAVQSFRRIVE
The experiment in a line: Thermal aggregation (72 °C, 20 min) turbidity assay, HγS_N143D. Conditions: HγS_N143D; 75 μM protein, 125 μM or less inhibitor (1.7:1), 72 °C 20 min.
Excerpt: as §1

In another assay the target is T4, HγS (Homo sapiens, UniProt P22914).
T4 sequence (P22914 1-178): T3 sequence (P22914 1-178 N144D) with D144N
Briefly: Thermal aggregation (72 °C, 20 min) turbidity assay, HγS. To be noted: HγS; 75 μM protein, 125 μM or less inhibitor (1.7:1), 72 °C 20 min.
Excerpt: as §1

Turning to `Cc1c(C(=O)O)c(O)cc2c1C(=O)c1c(O)c(C3O[C@H](CO)[C@@H](O)[C@H](O)[C@H]3O)c(O)c(O)c1C2=O` (stereo in doubt) [carmine], the “Outcome in the library screen (effect on aggregation/turbidity at 600 nm)” value in the assay on bovine gamma crystallins is listed as “no impact”.
Still for that read-out and setting: the result for `O=C(O)CC(O)(CC(=O)O)C(=O)O` [CA, citric acid] reads “positive”.
In the case of `CCCCCCCCCCCCCCCCC(C(=O)O)C(O)(CC(=O)O)C(=O)O` (centres unmarked) [drug A, agaric acid], the “Effect on BGC aggregation at 2.0 mg/ml at 10 min” value in the assay on Bovine γ-crystallins (400 μM drug, 72 °C, 10 min) was “improved BGC aggregation; also recorded: protects”. The “Effect on HγD aggregation at low protein” value on HγD (400 μM drug, 72 °C) is given as “not”. Further, the “Effect on HγD at 2.0 mg/ml and 20 min” value at HγD (400 μM drug, 72 °C, 20 min) was “suppressed; also recorded: protects”. For the same molecule, at WT-MγS, the “Effect on MγS absorbance” value is listed as “blocked absorbance; also recorded: protects”.
With `CCCCC(CC)COC(=O)CC(C(=O)OCC(CC)CCCC)S(=O)(=O)O` (centres unmarked) [drug DS, docusate sodium], the “Outcome in the library screen (effect on aggregation/turbidity at 600 nm)” value in the assay with bovine gamma crystallins was “positive”.
For `CC1=C(CCC(=O)O)c2cc3[nH]c(cc4nc(cc5[nH]c(cc1n2)c(C)c5C(C)O)C(C)=C4C(C)O)c(C)c3CCC(=O)O` (centres unmarked) [drug H, hematoporphyrin], the “Outcome in the library screen (effect on aggregation/turbidity at 600 nm)” value in the assay on bovine gamma crystallins is “positive”. Further, the “Thermal denaturation inhibitory activity in subscreen” value with Bovine γ-crystallins is “thermal denaturation inhibitory activity”.
On to `O=C1C=C2CC3(O)COc4c(ccc(O)c4O)C3=C2C=C1O` (centres unmarked) [drug I, hematein], for which the “Outcome in the library screen (effect on aggregation/turbidity at 600 nm)” value with bovine gamma crystallins is on record as “positive”.
Same read-out and setting: the result for `O=C(O)c1cc(O)c2c(c1)[C@H]([C@H]1c3cc(C(=O)O)cc(O)c3C(=O)c3c(O[C@@H]4O[C@H](CO)[C@@H](O)[C@H](O)[C@H]4O)cccc31)c1cccc(O[C@@H]3O[C@H](CO)[C@@H](O)[C@H](O)[C@H]3O)c1C2=O` [drug S, sennoside A] reads “positive”.
With `CCCCCCCCCCCCCCOS(=O)(=O)[O-].[Na+]` [drug T, tetradecyl sulfate sodium], the “% Suppression” value on HγS_N143D was found to be 42%; at HγS it was 40%. Besides, the “Thermal denaturation inhibitory activity in subscreen” value in the assay on Bovine γ-crystallins was “thermal denaturation inhibitory activity”.
As to `C=CCCCCCCCCCCCC(O)CC(O)CO` (centres unmarked) [drug V, avocadene], in the assay with Bovine γ-crystallins, the “Thermal denaturation inhibitory activity in subscreen” value was “thermal denaturation inhibitory activity”. The “% Suppression” value with Bovine γ-crystallins (Bovine γ-crystallins experiment 1) came out at 36%; in the assay with Bovine γ-crystallins (Bovine γ-crystallins experiment 2), 53%.
Take `O=C(O[C@@H]1Cc2c(O)cc(O)cc2O[C@@H]1c1cc(O)c(O)c(O)c1)c1cc(O)c(O)c(O)c1` [epigallocatechin gallate]: in the assay with bovine gamma crystallins, the “Outcome in the library screen (effect on aggregation/turbidity at 600 nm)” value was “improved aggregation”.
As to `COc1ccc([C@@H]2CC(=O)c3c(O)cc(O)cc3O2)cc1O` [hesperetin], in the assay on bovine gamma crystallins, the “Outcome in the library screen (effect on aggregation/turbidity at 600 nm)” value is listed as “no impact”.
Turning to `CC(C)=CCC[C@@H](C)[C@H]1CC[C@@]2(C)C3=C(CC[C@]12C)[C@@]1(C)CC[C@H](O)C(C)(C)[C@@H]1CC3` [lanosterol], the “Outcome in the library screen (effect on aggregation/turbidity at 600 nm)” value in the assay with bovine gamma crystallins is “no impact”.
Same read-out and setting: the same measure for `O=c1c(O)c(-c2ccc(O)cc2O)oc2cc(O)cc(O)c12` [morin]: “no impact”; for `O=c1c(O)c(-c2ccc(O)c(O)c2)oc2cc(O)cc(O)c12` [quercetin]: “worsened aggregation”; for escin [drug E]: “positive”.
hemin: the “Outcome in the library screen (effect on aggregation/turbidity at 600 nm)” value in the assay with bovine gamma crystallins is “positive”.
As for “pool 1: purified high–molecular weight bovine α-crystallins, used as positive control”, in the assay with Bovine γ-crystallins (thermal aggregation), the “Inhibition of pool 4 protein aggregation by positive control” value is “potently inhibit”. Moreover, in the assay with HγD (thermal aggregation), the “Inhibition of HγD aggregation by positive control” value is “potently inhibit”.
